Experimental data reported in PubChem BioAssay (NCI).
“And” between values parts separate entries of the source, which are not always exact repeats. Equal entries are not always repeated.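 Cultured in 96-well plates, cells were exposed to test compound for 48 hours across five concentrations. GI50 marks 50% less growth. TGI: concentration producing complete growth inhibition.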

What was measured:
Assay in all cases: NCI anticancer screen, dose series, 48 h
HCC-2998 colon = test system: HCC-2998 colon
HT29 colon = test system: HT29 colon
SK-OV-3 ovarian = test system: SK-OV-3 ovarian
COLO 205 colon = test system: COLO 205 colon
U251 CNS = test system: U251 CNS
786-0 renal = test system: 786-0 renal
HL-60(TB) leukemia = test system: HL-60(TB) leukemia
ACHN renal = test system: ACHN renal
HCT-15 colon = test system: HCT-15 colon
SF-295 CNS = test system: SF-295 CNS

| SMILES | TGI (HCC-2998 colon) | TGI (HT29 colon) | TGI (SK-OV-3 ovarian) | TGI (COLO 205 colon) | TGI (U251 CNS) | TGI (786-0 renal) | TGI (HL-60(TB) leukemia) | TGI (ACHN renal) | TGI (HCT-15 colon) | TGI (SF-295 CNS) | GI50 (HL-60(TB) leukemia) [µM] | GI50 (SK-OV-3 ovarian) [µM] | GI50 (HCC-2998 colon) [µM] | GI50 (HT29 colon) [µM] | GI50 (COLO 205 colon) [µM] | GI50 (U251 CNS) [µM] | GI50 (ACHN renal) [µM] | GI50 (HCT-15 colon) [µM] | GI50 (SF-295 CNS) [µM] |
| --- | --- | --- | --- | --- | --- | --- | --- | --- | --- | --- | --- | --- | --- | --- | --- | --- | --- | --- | --- |
| CC(C)(C)c1ccc(O)c(Br)c1 | > 100 µM | > 100 µM | > 100 µM | > 100 µM | > 100 µM | > 100 µM | > 100 µM | > 100 µM | > 100 µM | > 100 µM | – | – | – | – | – | – | – | – | – |
| CC(C)(C)OC(=O)N1C(C2=COc3ccccc3O2)=COc2cccnc21 | 3.16 µM | 5.8 µM | 3.99 µM | 3.64 µM | 3.13 µM | 3.66 µM | – | 3.19 µM | 3.46 µM | 3.99 µM | – | – | – | – | – | – | – | – | – |
| CC(Br)C(=O)c1ccc2cc(Br)c3ccccc3c2c1 (configuration not stated) | 29.6 µM | 31.8 µM | 30.8 µM | – | 26.5 µM | 11.7 µM | 37.5 µM | 31.4 µM | 31 µM | 31.4 µM | – | – | – | – | – | – | – | – | – |
| Cc1cc(O)c2c(c1O)C(=O)c1c(O)ccc(O)c1C2=O | > 100 µM | > 100 µM | > 100 µM | > 100 µM | > 100 µM | > 100 µM | > 100 µM | > 100 µM | > 100 µM | > 100 µM | – | – | – | – | – | – | – | – | – |
| O=P(O)(O)OP(=O)(O)O | > 100 µM | > 100 µM | > 100 µM | > 100 µM | > 100 µM | > 100 µM | > 100 µM | > 100 µM | > 100 µM | – | – | – | – | – | – | – | – | – | – |
| COc1cccc(/C=N/[N-]C(N)=O)c1[O-].[Cu+2].[OH3+].c1cnc2c(c1)ccc1cccnc12 | 49.1 µM | 75.5 µM | 25.2 µM | 32.5 µM | 17.7 µM | 20.2 µM | 48.7 µM | 40.3 µM | > 100 µM | 51.2 µM | 20 | – | – | – | – | – | – | – | – |
| O=S1c2ccccc2N=C(c2ccc3ccccc3c2)CC1c1ccccc1 (configuration not stated) | 36.6 µM | 35.1 µM | 92.6 µM | 40 µM | 32.6 µM | – | 58.1 µM | 31.8 µM | 32.5 µM | 36.2 µM | – | – | – | – | – | – | – | – | – |
| O=c1oc2c(ccc3occc32)c(N2CCCCC2)c1-c1ccccc1 | > 100 µM | > 100 µM | > 100 µM | > 100 µM | > 100 µM | – | 80.1 µM | – | > 100 µM | > 100 µM | – | > 100 | – | – | – | – | – | – | – |
| C[C@H](Nc1ccc(C#N)n(C)c1=O)c1cc2cc(Cl)ccc2[nH]c1=O | > 100 µM | > 100 µM | 75.1 µM | 40.2 µM | > 100 µM | – | 58.5 µM | > 100 µM | > 100 µM | 94.3 µM | 22.4 | 23.9 | 33.5 | 33.1 | 19 | 30 | 27 | 28.6 | 26.9 |
| Cc1cc(N2CCOCC2)nc(N(CCCNc2ccnc3cc(Cl)ccc23)Cc2ccc3c(c2)OCO3)n1 | – | 2.8 µM | 4.54 µM | – | 2.12 µM | – | – | – | – | – | – | 2.29 | – | 1.34 | – | 0.936 | – | – | – |
| CCN(CC)/[N+]([O-])=N/OC | > 100 µM | > 100 µM | > 100 µM | – | > 100 µM | – | > 100 µM | > 100 µM | > 100 µM | > 100 µM | – | – | – | – | – | – | – | – | – |
| COC1OC(C(=O)CP(=O)(OC)OC)C(OCc2ccccc2)C(OCc2ccccc2)C1OCc1ccccc1 (configuration not stated) | 31.5 µM and 29.7 µM | 30.6 µM and 31.7 µM | 32.7 µM and 32.6 µM | 32.7 µM and 33.5 µM | 29 µM and 30.3 µM | 31.3 µM and 31.4 µM | 59.4 µM and 47 µM | 29.4 µM and 29.9 µM | 33.4 µM and 36.1 µM | 28.1 µM and 30.3 µM | – | – | – | – | – | – | – | – | – |
| O=C(CSc1nc2ccc(Cl)cc2c(=O)n1-c1ccccc1)N=Nc1c(O)[nH]c2ccc(F)cc12 | 8.73 µM | 3.96 µM | 22.3 µM | 4.81 µM | 3.27 µM | 4.45 µM | 7.25 µM | 4.1 µM | 3.45 µM | 14.9 µM | – | – | – | – | – | – | – | – | – |
| CCCCCCOC(=O)C(N)Cc1ccc(OC)cc1 (configuration not stated) | – | > 100 µM | > 100 µM | > 100 µM | > 100 µM | > 100 µM | > 100 µM | > 100 µM | > 100 µM | > 100 µM | – | – | – | – | – | – | – | – | – |
| C/C(=C\CNc1ncnc2nc(Cl)[nH]c12)CO | > 100 µM | > 100 µM | > 100 µM | > 100 µM | – | > 100 µM | > 100 µM | > 100 µM | – | > 100 µM | – | – | – | – | – | – | – | – | – |
| O=CC(O)C(O)C(O)COc1cc(CO)cc2c1C(=O)c1ccccc1C2=O (configuration not stated) | > 100 µM | > 100 µM | > 100 µM | > 100 µM | > 100 µM | > 100 µM | > 100 µM | > 31.6 µM | > 100 µM | > 100 µM | – | – | – | – | – | – | – | – | – |
| COC(=N)C(C)C | > 100 µM | > 100 µM | > 100 µM | > 100 µM | > 100 µM | – | > 100 µM | > 100 µM | > 100 µM | > 100 µM | – | – | – | – | – | – | – | – | – |
| CC(C)c1ccc2c(c1)[C@@]1(C)CC[C@H](C)C(C)(C)C1CC2 (some centres not stated) | 41.3 µM | 31.3 µM | 33.9 µM | 42.1 µM | – | 33.4 µM | 63.6 µM | 32.6 µM | 34 µM | 38.3 µM | – | – | – | – | – | – | – | – | – |
| Clc1ccc(NCc2nnc(COc3ccc(OCc4nnc(CNc5ccc(Cl)cc5)o4)c(Cl)c3)o2)cc1 | > 100 µM | 95.6 µM | – | 25.9 µM | > 100 µM | > 100 µM | 27 µM | > 100 µM | > 100 µM | > 100 µM | – | – | – | – | – | – | – | – | – |
| NCCCCN | > 100 µM | > 100 µM | > 100 µM | > 100 µM | > 100 µM | > 100 µM | > 100 µM | > 100 µM | > 100 µM | > 100 µM | – | – | – | – | – | – | – | – | – |
| CN(C)C/C=C(/c1ccc(Br)cc1)c1cccnc1 | 29.8 µM | > 100 µM | > 100 µM | 32.4 µM | > 100 µM | > 100 µM | 0.0516 µM | > 100 µM | > 100 µM | 63.5 µM | – | – | – | – | – | – | – | – | – |
